Laboratory results reported in PubChem BioAssay (NCI).
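Interpolation was linear, between the two tested concentrations surrounding the appropriate level; five concentrations were tested over 48 hours in 96-well plates. The concentration for full growth arrest is given as TGI.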

Experiments:
Assay in all cases: NCI tumour cell line growth inhibition, 48 h
U251 CNS = test system: U251 CNS
SNB-75 CNS = test system: SNB-75 CNS
COLO 205 colon = test system: COLO 205 colon
HCC-2998 colon = test system: HCC-2998 colon
EKVX NSCLC = test system: EKVX NSCLC
A549 NSCLC = test system: A549 NSCLC
LOX IMVI melanoma = test system: LOX IMVI melanoma
MCF7 breast = test system: MCF7 breast
HT29 colon = test system: HT29 colon
SK-MEL-28 melanoma = test system: SK-MEL-28 melanoma
NCI-H23 lung = test system: NCI-H23 lung
MDA-MB-435 = test system: MDA-MB-435
T-47D breast = test system: T-47D breast
HCT-116 colon = test system: HCT-116 colon
NCI-H522 lung = test system: NCI-H522 lung
NCI-H226 lung = test system: NCI-H226 lung
HOP-92 NSCLC = test system: HOP-92 NSCLC
786-0 renal = test system: 786-0 renal
KM12 colon = test system: KM12 colon
SNB-19 CNS = test system: SNB-19 CNS
SF-295 CNS = test system: SF-295 CNS
SK-MEL-5 melanoma = test system: SK-MEL-5 melanoma
HCT-15 colon = test system: HCT-15 colon
ACHN renal = test system: ACHN renal
SK-MEL-2 melanoma = test system: SK-MEL-2 melanoma
OVCAR-8 ovarian = test system: OVCAR-8 ovarian
IGROV1 ovarian = test system: IGROV1 ovarian
OVCAR-3 ovarian = test system: OVCAR-3 ovarian
M14 melanoma = test system: M14 melanoma
SF-268 CNS = test system: SF-268 CNS
K-562 leukemia = test system: K-562 leukemia
CCRF-CEM leukemia = test system: CCRF-CEM leukemia
SR leukemia = test system: SR leukemia
SN12C renal = test system: SN12C renal
MALME-3M melanoma = test system: MALME-3M melanoma
SK-OV-3 ovarian = test system: SK-OV-3 ovarian
CAKI-1 renal = test system: CAKI-1 renal
MDA-MB-231 breast = test system: MDA-MB-231 breast
OVCAR-4 ovarian = test system: OVCAR-4 ovarian
UACC-257 melanoma = test system: UACC-257 melanoma
HL-60(TB) leukemia = test system: HL-60(TB) leukemia
PC-3 prostate = test system: PC-3 prostate
HS 578T breast = test system: HS 578T breast
MDA-N = test system: MDA-N
SF-539 CNS = test system: SF-539 CNS
NCI/ADR-RES ovarian = test system: NCI/ADR-RES ovarian
TK-10 renal = test system: TK-10 renal
A498 renal = test system: A498 renal
RXF 393 renal = test system: RXF 393 renal
SW-620 colon = test system: SW-620 colon
OVCAR-5 ovarian = test system: OVCAR-5 ovarian
MOLT-4 leukemia = test system: MOLT-4 leukemia
HOP-62 NSCLC = test system: HOP-62 NSCLC
DU-145 prostate = test system: DU-145 prostate
RPMI-8226 leukemia = test system: RPMI-8226 leukemia
UO-31 renal = test system: UO-31 renal
NCI-H460 lung = test system: NCI-H460 lung
UACC-62 melanoma = test system: UACC-62 melanoma

## O=C1OCC=C1COC1OC(CO)C(O)C(O)C1O (stereo not given)
U251 CNS
  TGI: > 100 µM
SNB-75 CNS
  TGI: > 100 µM
COLO 205 colon
  TGI: > 100 µM
HCC-2998 colon
  TGI: > 100 µM
EKVX NSCLC
  TGI: > 100 µM
A549 NSCLC
  TGI: > 100 µM
LOX IMVI melanoma
  TGI: > 100 µM
MCF7 breast
  TGI: > 100 µM
HT29 colon
  TGI: > 100 µM
SK-MEL-28 melanoma
  TGI: > 100 µM
NCI-H23 lung
  TGI: > 100 µM
MDA-MB-435
  TGI: > 100 µM
T-47D breast
  TGI: > 100 µM
HCT-116 colon
  TGI: > 100 µM
NCI-H522 lung
  TGI: 39.3 µM
NCI-H226 lung
  TGI: > 100 µM
HOP-92 NSCLC
  TGI: > 100 µM
786-0 renal
  TGI: > 100 µM
KM12 colon
  TGI: > 100 µM
SNB-19 CNS
  TGI: > 100 µM
SF-295 CNS
  TGI: > 100 µM
SK-MEL-5 melanoma
  TGI: > 100 µM
HCT-15 colon
  TGI: > 100 µM
ACHN renal
  TGI: > 100 µM
SK-MEL-2 melanoma
  TGI: > 100 µM
OVCAR-8 ovarian
  TGI: > 100 µM
IGROV1 ovarian
  TGI: > 100 µM
OVCAR-3 ovarian
  TGI: > 100 µM
M14 melanoma
  TGI: > 100 µM
SF-268 CNS
  TGI: > 100 µM
K-562 leukemia
  TGI: > 100 µM
CCRF-CEM leukemia
  TGI: > 100 µM
SR leukemia
  TGI: > 100 µM
SN12C renal
  TGI: > 100 µM
MALME-3M melanoma
  TGI: > 100 µM
SK-OV-3 ovarian
  TGI: > 100 µM
CAKI-1 renal
  TGI: > 100 µM
MDA-MB-231 breast
  TGI: > 100 µM
OVCAR-4 ovarian
  TGI: > 100 µM
UACC-257 melanoma
  TGI: > 100 µM
HL-60(TB) leukemia
  TGI: > 100 µM
PC-3 prostate
  TGI: > 100 µM
HS 578T breast
  TGI: > 100 µM
MDA-N
  TGI: > 100 µM
SF-539 CNS
  TGI: > 100 µM
NCI/ADR-RES ovarian
  TGI: > 100 µM
TK-10 renal
  TGI: > 100 µM
A498 renal
  TGI: > 100 µM
RXF 393 renal
  TGI: > 100 µM
SW-620 colon
  TGI: > 100 µM
OVCAR-5 ovarian
  TGI: > 100 µM
MOLT-4 leukemia
  TGI: > 100 µM
HOP-62 NSCLC
  TGI: > 100 µM
DU-145 prostate
  TGI: > 100 µM
RPMI-8226 leukemia
  TGI: > 100 µM
UO-31 renal
  TGI: > 100 µM
NCI-H460 lung
  TGI: > 100 µM

## CCN(CC)CCOc1ccc(N2C(=O)c3cccc4cc([N+](=O)[O-])cc(c34)C2=O)cc1
U251 CNS
  TGI: 22.6 µM
SNB-75 CNS
  TGI: 35.1 µM
COLO 205 colon
  TGI: 64.2 µM
HCC-2998 colon
  TGI: 25 µM
EKVX NSCLC
  TGI: 35.4 µM
A549 NSCLC
  TGI: 19.8 µM
LOX IMVI melanoma
  TGI: 20.4 µM
MCF7 breast
  TGI: 23.5 µM
HT29 colon
  TGI: 18.3 µM
SK-MEL-28 melanoma
  TGI: 25.3 µM
NCI-H23 lung
  TGI: 26.5 µM
MDA-MB-435
  TGI: 26.6 µM
T-47D breast
  TGI: 39.3 µM
HCT-116 colon
  TGI: 20.5 µM
NCI-H522 lung
  TGI: 19.7 µM
NCI-H226 lung
  TGI: 19 µM
HOP-92 NSCLC
  TGI: 44.1 µM
786-0 renal
  TGI: 18.3 µM
KM12 colon
  TGI: 64.5 µM
SNB-19 CNS
  TGI: 30.3 µM
SF-295 CNS
  TGI: 21.1 µM
SK-MEL-5 melanoma
  TGI: 26.6 µM
HCT-15 colon
  TGI: 26.1 µM
ACHN renal
  TGI: 15.9 µM
SK-MEL-2 melanoma
  TGI: 33.7 µM
OVCAR-8 ovarian
  TGI: 34.5 µM
IGROV1 ovarian
  TGI: 22.3 µM
M14 melanoma
  TGI: 25.3 µM
SF-268 CNS
  TGI: 27.1 µM
CCRF-CEM leukemia
  TGI: 30.8 µM
SR leukemia
  TGI: 32.8 µM
SN12C renal
  TGI: 40.9 µM
MALME-3M melanoma
  TGI: 26.9 µM
CAKI-1 renal
  TGI: 26 µM
MDA-MB-231 breast
  TGI: 37.6 µM
OVCAR-4 ovarian
  TGI: 31 µM
UACC-257 melanoma
  TGI: 27 µM
HL-60(TB) leukemia
  TGI: 28.2 µM
PC-3 prostate
  TGI: 35.2 µM
HS 578T breast
  TGI: 42.5 µM
MDA-N
  TGI: 30.3 µM
SF-539 CNS
  TGI: 25.1 µM
NCI/ADR-RES ovarian
  TGI: 60 µM
TK-10 renal
  TGI: 26 µM
A498 renal
  TGI: 25.4 µM
SW-620 colon
  TGI: 25.8 µM
OVCAR-5 ovarian
  TGI: 20.9 µM
MOLT-4 leukemia
  TGI: 11.3 µM
HOP-62 NSCLC
  TGI: 15.4 µM
DU-145 prostate
  TGI: 24.3 µM
UO-31 renal
  TGI: 21.7 µM
NCI-H460 lung
  TGI: 15.5 µM

## COc1cc(C=O)cc(/C=N/c2ccccn2)c1O
U251 CNS
  TGI: 55.2 µM
SNB-75 CNS
  TGI: 16.3 µM
COLO 205 colon
  TGI: 29.5 µM
HCC-2998 colon
  TGI: > 100 µM
EKVX NSCLC
  TGI: > 100 µM
A549 NSCLC
  TGI: > 100 µM
LOX IMVI melanoma
  TGI: 30.9 µM
MCF7 breast
  TGI: > 100 µM
HT29 colon
  TGI: 55 µM
SK-MEL-28 melanoma
  TGI: 21.9 µM
NCI-H23 lung
  TGI: > 100 µM
MDA-MB-435
  TGI: 41.4 µM
T-47D breast
  TGI: > 100 µM
HCT-116 colon
  TGI: > 100 µM
NCI-H226 lung
  TGI: 38.4 µM
HOP-92 NSCLC
  TGI: 8.55 µM
786-0 renal
  TGI: > 100 µM
KM12 colon
  TGI: > 100 µM
SNB-19 CNS
  TGI: > 100 µM
UACC-62 melanoma
  TGI: > 100 µM
SF-295 CNS
  TGI: > 100 µM
SK-MEL-5 melanoma
  TGI: 11.4 µM
HCT-15 colon
  TGI: > 100 µM
ACHN renal
  TGI: 6.97 µM
SK-MEL-2 melanoma
  TGI: 10.5 µM
OVCAR-8 ovarian
  TGI: 12 µM
OVCAR-3 ovarian
  TGI: 59.1 µM
M14 melanoma
  TGI: 62.2 µM
SF-268 CNS
  TGI: 19 µM
K-562 leukemia
  TGI: > 100 µM
CCRF-CEM leukemia
  TGI: > 100 µM
SR leukemia
  TGI: 34.5 µM
SN12C renal
  TGI: 88.8 µM
MALME-3M melanoma
  TGI: 14.9 µM
SK-OV-3 ovarian
  TGI: 78 µM
CAKI-1 renal
  TGI: 9.76 µM
MDA-MB-231 breast
  TGI: > 100 µM
OVCAR-4 ovarian
  TGI: > 100 µM
UACC-257 melanoma
  TGI: 55.3 µM
HL-60(TB) leukemia
  TGI: 83.3 µM
PC-3 prostate
  TGI: 25.6 µM
HS 578T breast
  TGI: 70.6 µM
MDA-N
  TGI: 35.6 µM
SF-539 CNS
  TGI: 8.84 µM
NCI/ADR-RES ovarian
  TGI: > 100 µM
TK-10 renal
  TGI: > 100 µM
A498 renal
  TGI: 31.3 µM
RXF 393 renal
  TGI: 4.97 µM
SW-620 colon
  TGI: > 100 µM
OVCAR-5 ovarian
  TGI: > 100 µM
MOLT-4 leukemia
  TGI: 88.7 µM
HOP-62 NSCLC
  TGI: 80 µM
DU-145 prostate
  TGI: > 100 µM
RPMI-8226 leukemia
  TGI: 51.9 µM
UO-31 renal
  TGI: 14.1 µM
NCI-H460 lung
  TGI: 42.7 µM
